{"source": "the NIST ThermoML archive (doi:10.1016/j.jct.2018.01.019)", "experiment": "molar heat capacity at constant pressure", "conditions": "101.33 kPa, Small sample (50 mg) DSC", "note": "± gives the expanded uncertainty stated by the source."}
{"smiles": "O=[Si]=O", "note": "[silicon dioxide]", "values": [{"measurement": "molar heat capacity at constant pressure", "setting": "809.47 K, Crystal 2", "value": "72.53 ± 1.3", "unit": "J/K/mol"}, {"measurement": "molar heat capacity at constant pressure", "setting": "809.64 K, Crystal 2", "value": "72.6 ± 1.2", "unit": "J/K/mol"}, {"measurement": "molar heat capacity at constant pressure", "setting": "809.8 K, Crystal 2", "value": "72.59 ± 1.2", "unit": "J/K/mol"}, {"measurement": "molar heat capacity at constant pressure", "setting": "809.97 K, Crystal 2", "value": "72.54 ± 1.1", "unit": "J/K/mol"}, {"measurement": "molar heat capacity at constant pressure", "setting": "855 K, Crystal 1", "value": "69.38 ± 1.3", "unit": "J/K/mol"}, {"measurement": "molar heat capacity at constant pressure", "setting": "855.17 K, Crystal 1", "value": "69.28 ± 1.2", "unit": "J/K/mol"}, {"measurement": "molar heat capacity at constant pressure", "setting": "855.33 K, Crystal 1", "value": "69.26 ± 1.2", "unit": "J/K/mol"}, {"measurement": "molar heat capacity at constant pressure", "setting": "855.5 K, Crystal 1", "value": "69.13 ± 1.1", "unit": "J/K/mol"}, {"measurement": "molar heat capacity at constant pressure", "setting": "855.67 K, Crystal 1", "value": "69.16 ± 1.2", "unit": "J/K/mol"}, {"measurement": "molar heat capacity at constant pressure", "setting": "855.83 K, Crystal 1", "value": "69.22 ± 1.2", "unit": "J/K/mol"}, {"measurement": "molar heat capacity at constant pressure", "setting": "856 K, Crystal 1", "value": "69.21 ± 1.2", "unit": "J/K/mol"}, {"measurement": "molar heat capacity at constant pressure", "setting": "856.16 K, Crystal 1", "value": "69.11 ± 1.2", "unit": "J/K/mol"}, {"measurement": "molar heat capacity at constant pressure", "setting": "856.33 K, Crystal 1", "value": "69.06 ± 1.2", "unit": "J/K/mol"}, {"measurement": "molar heat capacity at constant pressure", "setting": "856.5 K, Crystal 1", "value": "68.99 ± 1.1", "unit": "J/K/mol"}, {"measurement": "molar heat capacity at constant pressure", "setting": "856.66 K, Crystal 1", "value": "68.93 ± 1.1", "unit": "J/K/mol"}, {"measurement": "molar heat capacity at constant pressure", "setting": "856.83 K, Crystal 1", "value": "68.69 ± 1.1", "unit": "J/K/mol"}, {"measurement": "molar heat capacity at constant pressure", "setting": "857 K, Crystal 1", "value": "68.5 ± 1.1", "unit": "J/K/mol"}, {"measurement": "molar heat capacity at constant pressure", "setting": "857.17 K, Crystal 1", "value": "68.55 ± 1.2", "unit": "J/K/mol"}, {"measurement": "molar heat capacity at constant pressure", "setting": "857.34 K, Crystal 1", "value": "68.66 ± 1.2", "unit": "J/K/mol"}, {"measurement": "molar heat capacity at constant pressure", "setting": "857.51 K, Crystal 1", "value": "68.7 ± 1.1", "unit": "J/K/mol"}, {"measurement": "molar heat capacity at constant pressure", "setting": "857.68 K, Crystal 1", "value": "68.71 ± 1.2", "unit": "J/K/mol"}, {"measurement": "molar heat capacity at constant pressure", "setting": "857.84 K, Crystal 1", "value": "68.75 ± 1.2", "unit": "J/K/mol"}, {"measurement": "molar heat capacity at constant pressure", "setting": "858.01 K, Crystal 1", "value": "68.66 ± 1.2", "unit": "J/K/mol"}, {"measurement": "molar heat capacity at constant pressure", "setting": "858.17 K, Crystal 1", "value": "68.56 ± 1.2", "unit": "J/K/mol"}, {"measurement": "molar heat capacity at constant pressure", "setting": "858.34 K, Crystal 1", "value": "68.6 ± 1.1", "unit": "J/K/mol"}, {"measurement": "molar heat capacity at constant pressure", "setting": "858.51 K, Crystal 1", "value": "68.58 ± 1.1", "unit": "J/K/mol"}, {"measurement": "molar heat capacity at constant pressure", "setting": "858.68 K, Crystal 1", "value": "68.63 ± 1.1", "unit": "J/K/mol"}, {"measurement": "molar heat capacity at constant pressure", "setting": "858.84 K, Crystal 1", "value": "68.51 ± 1.1", "unit": "J/K/mol"}, {"measurement": "molar heat capacity at constant pressure", "setting": "859.01 K, Crystal 1", "value": "68.34 ± 1.1", "unit": "J/K/mol"}, {"measurement": "molar heat capacity at constant pressure", "setting": "859.18 K, Crystal 1", "value": "68.29 ± 1.1", "unit": "J/K/mol"}, {"measurement": "molar heat capacity at constant pressure", "setting": "859.34 K, Crystal 1", "value": "68.29 ± 1.1", "unit": "J/K/mol"}, {"measurement": "molar heat capacity at constant pressure", "setting": "859.51 K, Crystal 1", "value": "68.3 ± 1.1", "unit": "J/K/mol"}, {"measurement": "molar heat capacity at constant pressure", "setting": "859.68 K, Crystal 1", "value": "68.35 ± 1.1", "unit": "J/K/mol"}, {"measurement": "molar heat capacity at constant pressure", "setting": "859.84 K, Crystal 1", "value": "68.21 ± 1.1", "unit": "J/K/mol"}, {"measurement": "molar heat capacity at constant pressure", "setting": "860.01 K, Crystal 1", "value": "68.03 ± 1.1", "unit": "J/K/mol"}, {"measurement": "molar heat capacity at constant pressure", "setting": "860.18 K, Crystal 1", "value": "68.14 ± 1.1", "unit": "J/K/mol"}, {"measurement": "molar heat capacity at constant pressure", "setting": "860.34 K, Crystal 1", "value": "68.2 ± 1.1", "unit": "J/K/mol"}, {"measurement": "molar heat capacity at constant pressure", "setting": "860.51 K, Crystal 1", "value": "68.18 ± 1.1", "unit": "J/K/mol"}, {"measurement": "molar heat capacity at constant pressure", "setting": "860.67 K, Crystal 1", "value": "68.22 ± 1.1", "unit": "J/K/mol"}, {"measurement": "molar heat capacity at constant pressure", "setting": "860.84 K, Crystal 1", "value": "68.32 ± 1.1", "unit": "J/K/mol"}, {"measurement": "molar heat capacity at constant pressure", "setting": "861.01 K, Crystal 1", "value": "68.41 ± 1.1", "unit": "J/K/mol"}, {"measurement": "molar heat capacity at constant pressure", "setting": "861.17 K, Crystal 1", "value": "68.37 ± 1.1", "unit": "J/K/mol"}, {"measurement": "molar heat capacity at constant pressure", "setting": "861.34 K, Crystal 1", "value": "68.49 ± 1.1", "unit": "J/K/mol"}, {"measurement": "molar heat capacity at constant pressure", "setting": "861.51 K, Crystal 1", "value": "68.55 ± 1.1", "unit": "J/K/mol"}, {"measurement": "molar heat capacity at constant pressure", "setting": "861.67 K, Crystal 1", "value": "68.37 ± 1.1", "unit": "J/K/mol"}, {"measurement": "molar heat capacity at constant pressure", "setting": "861.84 K, Crystal 1", "value": "68.37 ± 1.1", "unit": "J/K/mol"}, {"measurement": "molar heat capacity at constant pressure", "setting": "862.01 K, Crystal 1", "value": "68.4 ± 1.1", "unit": "J/K/mol"}, {"measurement": "molar heat capacity at constant pressure", "setting": "862.18 K, Crystal 1", "value": "68.4 ± 1.1", "unit": "J/K/mol"}, {"measurement": "molar heat capacity at constant pressure", "setting": "862.34 K, Crystal 1", "value": "68.53 ± 1.1", "unit": "J/K/mol"}, {"measurement": "molar heat capacity at constant pressure", "setting": "862.51 K, Crystal 1", "value": "68.5 ± 1.1", "unit": "J/K/mol"}, {"measurement": "molar heat capacity at constant pressure", "setting": "862.68 K, Crystal 1", "value": "68.45 ± 1.1", "unit": "J/K/mol"}, {"measurement": "molar heat capacity at constant pressure", "setting": "862.84 K, Crystal 1", "value": "68.5 ± 1.1", "unit": "J/K/mol"}, {"measurement": "molar heat capacity at constant pressure", "setting": "863.01 K, Crystal 1", "value": "68.42 ± 1.1", "unit": "J/K/mol"}, {"measurement": "molar heat capacity at constant pressure", "setting": "863.18 K, Crystal 1", "value": "68.35 ± 1.1", "unit": "J/K/mol"}, {"measurement": "molar heat capacity at constant pressure", "setting": "863.35 K, Crystal 1", "value": "68.3 ± 1.1", "unit": "J/K/mol"}, {"measurement": "molar heat capacity at constant pressure", "setting": "863.51 K, Crystal 1", "value": "68.21 ± 1.1", "unit": "J/K/mol"}, {"measurement": "molar heat capacity at constant pressure", "setting": "863.68 K, Crystal 1", "value": "68.19 ± 1.1", "unit": "J/K/mol"}, {"measurement": "molar heat capacity at constant pressure", "setting": "863.85 K, Crystal 1", "value": "68.28 ± 1.1", "unit": "J/K/mol"}, {"measurement": "molar heat capacity at constant pressure", "setting": "864.01 K, Crystal 1", "value": "68.44 ± 1.1", "unit": "J/K/mol"}, {"measurement": "molar heat capacity at constant pressure", "setting": "864.18 K, Crystal 1", "value": "68.48 ± 1.1", "unit": "J/K/mol"}, {"measurement": "molar heat capacity at constant pressure", "setting": "864.34 K, Crystal 1", "value": "68.4 ± 1.1", "unit": "J/K/mol"}, {"measurement": "molar heat capacity at constant pressure", "setting": "864.51 K, Crystal 1", "value": "68.29 ± 1.1", "unit": "J/K/mol"}, {"measurement": "molar heat capacity at constant pressure", "setting": "864.68 K, Crystal 1", "value": "68.37 ± 1.1", "unit": "J/K/mol"}, {"measurement": "molar heat capacity at constant pressure", "setting": "864.84 K, Crystal 1", "value": "68.59 ± 1.1", "unit": "J/K/mol"}, {"measurement": "molar heat capacity at constant pressure", "setting": "865.01 K, Crystal 1", "value": "68.52 ± 1.1", "unit": "J/K/mol"}, {"measurement": "molar heat capacity at constant pressure", "setting": "865.18 K, Crystal 1", "value": "68.35 ± 1.1", "unit": "J/K/mol"}, {"measurement": "molar heat capacity at constant pressure", "setting": "865.34 K, Crystal 1", "value": "68.39 ± 1.1", "unit": "J/K/mol"}, {"measurement": "molar heat capacity at constant pressure", "setting": "865.5 K, Crystal 1", "value": "68.4 ± 1.1", "unit": "J/K/mol"}, {"measurement": "molar heat capacity at constant pressure", "setting": "865.67 K, Crystal 1", "value": "68.46 ± 1.1", "unit": "J/K/mol"}, {"measurement": "molar heat capacity at constant pressure", "setting": "865.84 K, Crystal 1", "value": "68.59 ± 1.1", "unit": "J/K/mol"}, {"measurement": "molar heat capacity at constant pressure", "setting": "866.01 K, Crystal 1", "value": "68.64 ± 1.1", "unit": "J/K/mol"}, {"measurement": "molar heat capacity at constant pressure", "setting": "866.18 K, Crystal 1", "value": "68.69 ± 1.1", "unit": "J/K/mol"}, {"measurement": "molar heat capacity at constant pressure", "setting": "866.35 K, Crystal 1", "value": "68.59 ± 1.1", "unit": "J/K/mol"}, {"measurement": "molar heat capacity at constant pressure", "setting": "866.51 K, Crystal 1", "value": "68.39 ± 1.1", "unit": "J/K/mol"}, {"measurement": "molar heat capacity at constant pressure", "setting": "866.67 K, Crystal 1", "value": "68.35 ± 1.1", "unit": "J/K/mol"}, {"measurement": "molar heat capacity at constant pressure", "setting": "866.84 K, Crystal 1", "value": "68.26 ± 1.1", "unit": "J/K/mol"}, {"measurement": "molar heat capacity at constant pressure", "setting": "867.01 K, Crystal 1", "value": "68.21 ± 1.1", "unit": "J/K/mol"}, {"measurement": "molar heat capacity at constant pressure", "setting": "867.17 K, Crystal 1", "value": "68.25 ± 1.1", "unit": "J/K/mol"}, {"measurement": "molar heat capacity at constant pressure", "setting": "867.34 K, Crystal 1", "value": "68.38 ± 1.1", "unit": "J/K/mol"}, {"measurement": "molar heat capacity at constant pressure", "setting": "867.51 K, Crystal 1", "value": "68.37 ± 1.1", "unit": "J/K/mol"}, {"measurement": "molar heat capacity at constant pressure", "setting": "867.67 K, Crystal 1", "value": "68.45 ± 1.1", "unit": "J/K/mol"}, {"measurement": "molar heat capacity at constant pressure", "setting": "867.84 K, Crystal 1", "value": "68.49 ± 1.1", "unit": "J/K/mol"}, {"measurement": "molar heat capacity at constant pressure", "setting": "868.01 K, Crystal 1", "value": "68.4 ± 1.1", "unit": "J/K/mol"}, {"measurement": "molar heat capacity at constant pressure", "setting": "868.18 K, Crystal 1", "value": "68.35 ± 1.1", "unit": "J/K/mol"}, {"measurement": "molar heat capacity at constant pressure", "setting": "868.34 K, Crystal 1", "value": "68.32 ± 1.1", "unit": "J/K/mol"}, {"measurement": "molar heat capacity at constant pressure", "setting": "868.51 K, Crystal 1", "value": "68.4 ± 1.1", "unit": "J/K/mol"}, {"measurement": "molar heat capacity at constant pressure", "setting": "868.68 K, Crystal 1", "value": "68.45 ± 1.1", "unit": "J/K/mol"}, {"measurement": "molar heat capacity at constant pressure", "setting": "868.85 K, Crystal 1", "value": "68.49 ± 1.1", "unit": "J/K/mol"}, {"measurement": "molar heat capacity at constant pressure", "setting": "869.01 K, Crystal 1", "value": "68.43 ± 1.1", "unit": "J/K/mol"}]}
